Where “and” joins values, the source holds several entries; their conditions need not be identical. Equal values may be shown once. Entries after “also recorded” stand apart in the source; their conditions may differ. Read-outs that look alike come from different tables or passages of the source.

This note sets out measurements from article PMC11649397, “The study of halogen effect on the reactivity of the serine-targeting covalent warheads” (Frontiers in Chemistry, 2024).

This test deals with T1, hCES1A (Homo sapiens, UniProt P23141).
T1 sequence (P23141 18-567): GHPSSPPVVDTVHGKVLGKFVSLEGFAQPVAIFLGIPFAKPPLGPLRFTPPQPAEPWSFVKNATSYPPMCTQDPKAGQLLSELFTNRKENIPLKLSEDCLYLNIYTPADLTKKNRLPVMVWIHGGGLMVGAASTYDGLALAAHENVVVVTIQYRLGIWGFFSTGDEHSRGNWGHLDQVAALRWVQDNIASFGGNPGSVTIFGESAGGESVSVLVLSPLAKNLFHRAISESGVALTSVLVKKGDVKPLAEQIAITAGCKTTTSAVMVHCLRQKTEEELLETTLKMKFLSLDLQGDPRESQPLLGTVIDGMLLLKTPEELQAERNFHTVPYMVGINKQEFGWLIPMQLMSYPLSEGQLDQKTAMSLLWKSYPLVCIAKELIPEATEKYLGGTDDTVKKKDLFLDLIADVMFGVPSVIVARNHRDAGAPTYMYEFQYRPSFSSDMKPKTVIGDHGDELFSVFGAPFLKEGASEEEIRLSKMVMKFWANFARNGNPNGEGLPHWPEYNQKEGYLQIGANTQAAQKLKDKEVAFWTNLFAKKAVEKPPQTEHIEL
Briefly: Inhibition assay on hCES1A (bioluminogenic substrate NLMe). The settings on record: for selective inhibitory activity on hCES1A: 10 μM, selectivity screening; for IC50: mean ± SD, n = 3; for anti-hCES1A effect in screening of the covalent fragment library: high-throughput screening, Figure 1. It counts as biochemical. On the procedure: In this study, a known bioluminogenic probe substrate NLMe was used for human carboxylesterase 1 (hCES1A) inhibition assays. ([Wang et al., 2020]). In brief, the incubation mixture (0.1 mL) consisted of 0.1 M buffer PBS (PH 6.5), hCES1A (0.1 μg/mL, final concentration) and each test compound. […] After 20 min incubation, equal volume of LDR was added to stop reaction. The luminescence signals were monitored in the microplate reader (SpectraMax iD3Molecular Devices, Austria). […]
The household library of covalent fragments including D and F was from Organic Chemistry […]
Fig. S1. Partial fragment molecules of a household library targeting to serine. […]
Inhibition assay on hCES1A
In this study, a known bioluminogenic probe substrate NLMe was used for human carboxylesterase 1 (hCES1A) inhibition assays. 2 In brief, the incubation mixture (0.1 mL) consisted of 0.1 M buffer PBS (PH 6.5), hCES1A (0.1 μg/mL, final concentration) and each test compound. […]
After 20 min incubation, equal volume of LDR was added to stop reaction.

As for `O=C(c1ccccc1)C(F)(F)F` [F, 2,2,2-trifluoroacetophenone], the “selective inhibitory activity on hCES1A” value is “decent selective inhibitory activities”; the “anti-hCES1A effect in screening of the covalent fragment library” value was “potent anti-hCES1A effects; also recorded: strong and selective inhibition against hCES1A”. Besides, the 50% inhibitory concentration (IC50) (3 min incubation, read-out: hCES1A IC50 3 min) turned out to be 24.1 ± 1 nM. Moreover, the “time-dependent inhibition against hCES1A” value (3 min vs 33 min incubation) is “weak time-dependent inhibition”. Further, the half-maximal inhibitory concentration (IC50) (33 min incubation, read-out: hCES1A IC50 33 min) was 11 nM and 11.1 nM. Further, where the note is “ratio of IC50 at 3 min to IC50 at 33 min”, the “hCES1A IC50 Fold Increase” value is 2 and 2.2.

Consider `O=S(=O)(F)c1ccc(Br)cc1` [D, 4-bromobenzenesulfonyl fluoride], for which the “selective inhibitory activity on hCES1A” value is “decent selective inhibitory activities”; the “anti-hCES1A effect in screening of the covalent fragment library” value was “potent anti-hCES1A effects; also recorded: strong and selective inhibition against hCES1A”. Further, the “difference between IC50 values of hCES1A and hCES2A” value (hCES1A vs hCES2A) is listed as “no statistically significant difference”.
